Data taken from paper PMC8835475, “Salviolone from Salvia miltiorrhiza Roots Impairs Cell Cycle Progression, Colony Formation, and Metalloproteinase-2 Activity in A375 Melanoma Cells: Involvement of P21(Cip1/Waf1) Expression and STAT3 Phosphorylation” (International Journal of Molecular Sciences, 2022).

Experiments:
Assay type in all cases: cell-based, human
A375 melanoma cell line = assay: SRB cell viability assay in A375 cells; details: for inhibition of melanoma cell viability: A375, 20 µM; for inhibition of melanoma cell viability / EC50: 72 h; for viability reduction in melanoma cells / EC50: A375, SRB; for viability reduction in melanoma cells: 40–60 µM; for EC50: Homo sapiens, A-375, read-out: half maximal effective concentration (EC50) able to reduce cell viability
Protocol: (§1) In preliminary experiments, the evaluation of cell viability at different time after compound administration was carried out with sulforhodamine B (SRB) assay. Indeed, after 24-, 48-, and 72-h treatment, an evident time dependence in the inhibition of cell growth was registered (data not shown). Thus, to evaluate A375 and MeWo cell viability, we decided to perform further SRB experiments with each compound only after 72 h.
(§2) Human MeWo (HTB-65) and A375 (CRL-1619) melanoma cell lines as well as the normal human epidermal melanocyte (NHEM) (PCS-200-013) cell line (ATCC, Manassas, VA, USA) were cultured at 37 °C under 5% CO2 in a humidified atmosphere. Roswell Park Memorial Institute 1640 medium (RPMI, Gibco, Ref.21875, Thermo Scientific, Waltham, MA, USA) was used to culture MeWo cells, while Dulbecco’s Modified Eagle Medium (DMEM, Gibco, Ref. 61965, Thermo Scientific, Waltham, MA, USA) was used for A375 and NHEM cell lines. The culture media were supplemented with 10% fetal bovine serum (FBS, Gibco, Thermo Scientific, Waltham, MA, USA) plus 1% Antibiotic Antimycotic Solution (Gibco, Thermo Scientific). The MEK1 inhibitor U0126 (CAY-70970) and the PI3K inhibitor LY294002 (CAY-70920) were provided by Cayman Chemical, Ann Arbor, MI, USA.
(§3) Melanoma MeWo and A375 cells or NHEM were seeded in 96-well plates (5.0 × 10^3 cells/well for MeWo cells and 2.9 × 10^3 cells/well for A375 or NHEM). After 24-h culture, the cells were treated with different concentrations of compounds 1–7. After 72-h treatment, the cells were fixed by adding 25 µL/well of 50% (w/v) TCA directly into the culture medium. The plates were incubated at 4 °C for 1 h, washed four times with ddH2O, and dried at RT. Staining was performed by adding 50 µL/well of 0.04% (w/v) sulforhodamine B (SRB) sodium salt solution (Sigma-Aldrich, Milan, Italy). After 1-h incubation at RT, the plates were rinsed with 1% HAc and air-dried. SRB was solubilized in a 10 mM Tris-base solution pH 10.5 and Abs492 measured in the plate reader TECAN NanoQuant Infinite M200 Pro (Tecan Group Ltd., Männedorf, Switzerland). Six replicates for each condition/data point were performed.

Akt = assay: Immunoblot of total Akt in A375 cells; details: A375, 20 µM, 48 and 72 h
Protocol: A375 cells were seeded in 6 cm Petri dishes (190 300 cell/dish) and treated with different compounds at 10 or 20 μM. After 48- or 72-h treatment, the cells were scraped using warm 1× sample buffer (2% SDS, 10% glycerol, 50 mM Tris-HCl, 1.75% β-mercaptoethanol, and bromophenol blue) and boiled at 99 °C for 10 min. Total protein extracts were kept at −80 °C until use.
Protein extracts were analyzed with a 7.5 or 10% polyacrylamide SDS-PAGE and transferred to a polyvinylidene difluoride membrane (PVDF, Thermo Fisher Scientific, Waltham, MA, USA). The membranes were blocked at RT for 1 h with TBST buffer (10 mM Tris-HCl pH 7.5, 100 mM NaCl, 0.1% Tween20) containing 4% Milk (Formulat). […] Immuno-detection was carried out with an ECL kit (GE-Healthcare, Little Chalfont, UK), and the chemiluminescence signals were detected with ChemiDoc (Bio-Rad, Hercules, CA, USA).

A375 melanoma cells = assay: Soft agar colony formation assay; details: A375, 5 and 10 µM, 21-day culture
Protocol: Before seeding, 6-well plates were prepared with soft agar, as follows: the bottom layer was filled with 1% low-gelling temperature agarose and 2X DMEM, supplemented with 20% FBS and 2% Antibiotic Antimycotic Solution (Gibco, BRL Invitrogen Corp., Carlsbad, CA, USA). After 30 min, cells (5000 cell/well) were suspended in 0.6% agarose and 2X DMEM supplemented with 20% FBS and 2% Antibiotic Antimycotic Solution (Gibco, BRL Invitrogen Corp., Carlsbad, CA, USA) and placed over the 0.5% agarose layer. Then, either cryptotanshinone (4) or salviolone (7) at 5–10 μM was added directly into each well and 100 μL of fresh media was added twice a week for 3 weeks. The semi-solid cultures were performed in triplicate and images captured.

MeWo melanoma cell line = assay: SRB cell viability assay in MeWo cells; details: for inhibition of melanoma cell viability: 20 µM; for inhibition of melanoma cell viability / EC50: 72 h; for EC50: Homo sapiens, read-out: EC50 useful in diminishing cell viability; for EC50 / viability reduction in melanoma cells: SRB; for viability reduction in melanoma cells: 40–60 µM
Protocol: as §1, §2, §3

A375 cells = assay: Wound closure cell migration assay; details: A375, 20 µM, vs controls
Protocol: The wound healing assay is widely used to measure cell migration. The method is based on quantifying the rate at which cells can close an artificial scratch created in a confluent cell monolayer. A375 cells were seeded in 12-well plates (120 × 10^3 cells/well) and, once confluence was reached, the monolayer was scratched with a sterile 10 μL pipette tip. […] Then, either cryptotanshinone (4) or salviolone (7) at 10 or 20 µM was added to the culture. After 0-, 8-, 24- and 30-h culture, images were captured with Zeiss Axio Vert. (Zeiss, Milan, Italy) to measure the delay to repopulate the scratch in comparison with the non-treated control sample.

| SMILES | inhibition of melanoma cell viability (A375 melanoma cell line) | viability reduction in melanoma cells (A375 melanoma cell line) | EC50 (A375 melanoma cell line) | expression level of Akt total protein (Akt) | number and dimension of colonies formed on soft agar (A375 melanoma cells) | inhibition of melanoma cell viability (MeWo melanoma cell line) | EC50 (MeWo melanoma cell line) | viability reduction in melanoma cells (MeWo melanoma cell line) | A375 cell migration rate / wound healing closure (A375 cells) |
| --- | --- | --- | --- | --- | --- | --- | --- | --- | --- |
| C[C@H]1COC2=C1C(=O)C(=O)c1c2ccc2c1CCCC2(C)C [Compound 4, cryptotanshinone] | about 50% | 70–80% | ~14 µM | not changed | decreased | about 50% | 17 µM | 70–80% | slow down |
| Cc1cc2ccc3c(c2cc(O)c1=O)CCCC3(C)C [Compound 7, salviolone] | about 50% | 70–80% | ~17 µM | not changed | decreased | about 50% | 22 µM | 70–80% | did not significantly delay |
